Laboratory results published in patent publication US20050215620A1, “Method of treating amyloid beta precursor disorders” (Andrx Labs, LLC, priority 1999, published 2005).

Legend:
Aβ peptides = assay: Extracellular and intracellular [35S]-labeled Aβ peptides in APP-expressing H4, MDCK and CHO cells (pulse-chase, immunoprecipitation, autoradiography); format: cell-based, human; canine; Chinese hamster (cells expressing human APP)
Experimental: (§1) The three cell lines utilized were: Chinese Hamster Ovary (CHO) cells expressing the 751 amino acid form of APP; Mabin-Darby Canine Kidney (MDCK) cells which overexpress the 695 amino acid form of APP; Human neuroglioma (H4) cells overexpressing the 695 form of human APP. All cells were prepared by the stable introduction of a cDNA coding for human APP. All cell lines were maintained in DMEM containing 10% FBS and antibiotics.
In order to characterize the effects of cholesterol depletion, cell cultures of each cell line were cultured on six-well plates for 4 days in DMEM containing 10% FCLPDS, which lipid depleted medium reduced the external source of cholesterol, in the presence of lovastatin acid (LA) or absence of LA.
For measurement of APP processing and Aβ peptide formation, medium was removed and the cells were washed once with PBS and then incubated for 2 hours in DMEM containing 1 mCi/ml [^35S] Methionine. After this “pulse” period, the cells were either (1) lysed to measure the total labeled APPi and APPm at time zero, or (2) the cells were incubated for 2 hours in fresh, unlabeled complete medium (“chase”) and then lysed. Then the cell supernatants and lysates were treated with the appropriate antibody to calculate the amounts of APPi, APPm, APPs, and Aβ peptides.
To measure Aβ peptides, or to measure APPs, which is the secreted carboxyl-terminal truncated form, cell supernatants were incubated with antibody 6E10, which recognizes the first 15 amino acids of the Aβ peptide that correspond to the COOH-terminal amino acids of APPs . See Buxbaum, J. D., et al. (1994) Proc Natl Acad Sci USA. 91:4489-93, which is incorporated herein by reference.
The incubations with antibody 6E10 or antibody 369 were performed at 4° C. for 75 minutes followed by a 45 minute incubation at 4° C. with either agarose-linked anti-mouse IgG for antibody 6E10 or protein A sepharose for antibody 369. The beads were then washed three times for 10 minutes and then run on either a 10-20% Tris-Tricine Gel for APPs and Aβ peptides or an 8% polyacrylamide gel for cell-associated APR The gels were dried and exposed to a Phosphor Imager® screen (STORM 860, Molecular Dynamics) and exposed for a minimum of two days. The protein bands were visualized on a STORM 860 Phosphor Imager® (Molecular Dynamics) and quantitated using ImageQuant® (Molecular Dynamics). […]
To determine whether a decrease in cholesterol is associated with a change in the amount of extracellular Aβ peptides, the H4, MDCK, and CHO cells, expressing human APPm were incubated for 4 days in the presence or absence of 0.5 μM LA. […] Relative levels of extracellular Aβ peptides were determined under each condition by quantitative Phosphorlmager autoradiography. […]

APP processing [1] = assay: APP processing (APPs formation, APPm levels) in H4 cells; format: cell-based, human; conditions: 0.5 μM LA
Experimental: as §1
For measurement of APP processing and Aβ peptide formation, medium was removed and the cells were washed once with PBS and then incubated for 2 hours in DMEM containing 1 mCi/ml [^35S] Methionine. […]
The incubations with antibody 6E10 or antibody 369 were performed at 4° C. for 75 minutes followed by a 45 minute incubation at 4° C. with either agarose-linked anti-mouse IgG for antibody 6E10 or protein A sepharose for antibody 369. […] The protein bands were visualized on a STORM 860 Phosphor Imager® (Molecular Dynamics) and quantitated using ImageQuant® (Molecular Dynamics).
To determine whether cholesterol depletion affects other aspects of APP processing, H4 cells were incubated for four days in the presence or absence of 0.5 μM LA, and subjected to metabolic labeling. The levels of [^35S]-labeled APPi and APPm were determined by irnmunoprecipitation from cell lysates with an antibody against the COOH-terminal of APP, followed by quantitative autoradiography. […]

APP processing [2] = assay: Extracellular APPs, extracellular Aβ peptides and total APPm in CHO cells; format: cell-based, Chinese hamster (cells expressing human APP)
Experimental: The three cell lines utilized were: Chinese Hamster Ovary (CHO) cells expressing the 751 amino acid form of APP; Mabin-Darby Canine Kidney (MDCK) cells which overexpress the 695 amino acid form of APP; Human neuroglioma (H4) cells overexpressing the 695 form of human APP. All cells were prepared by the stable introduction of a cDNA coding for human APP. All cell lines were maintained in DMEM containing 10% FBS and antibiotics. […] After this “pulse” period, the cells were either (1) lysed to measure the total labeled APPi and APPm at time zero, or (2) the cells were incubated for 2 hours in fresh, unlabeled complete medium (“chase”) and then lysed. Then the cell supernatants and lysates were treated with the appropriate antibody to calculate the amounts of […], and Aβ peptides. To measure cell-associated, full-length APPi and APPm, or to measure carboxyl-terminal fragments of APP, cell lysates were incubated with antibody 369 which recognizes the carboxyl-terminus of APP. See Buxbaum, J. D., et al. (1990) Proc Natl Acad Sci USA 87:6003-6, which is incorporated herein by reference. […] See Buxbaum, J. D., et al. (1994) Proc Natl Acad Sci USA. 91:4489-93, which is incorporated herein by reference. The incubations with antibody 6E10 or antibody 369 were performed at 4° C. for 75 minutes followed by a 45 minute incubation at 4° C. with either agarose-linked anti-mouse IgG for antibody 6E10 or protein A sepharose for antibody 369. […] The protein bands were visualized on a STORM 860 Phosphor Imager® (Molecular Dynamics) and quantitated using ImageQuant® (Molecular Dynamics). […] Specifically, it was determined that treatment of CHO cells with 0.5 μM LA reduced the amount of extracellular APPs by about 30% of the amount calculated for the control and reduced the amount of extracellular Aβ peptides by about 70% of the amount calculated for the control when no LA was present. The amount of extracellular Aβ peptides and the amount of extracellular APPs were normalized to the amount of total APP found in the cell at the end of cell labeling as described above. […]

[3] = CHO cells, 0.5 μM LA, normalized to total APP

Q: For `CC[C@H](C)C(=O)O[C@H]1C[C@@H](C)C=C2C=C[C@H](C)[C@H](CC[C@@H](O)C[C@@H](O)CC(=O)O)[C@H]21` [LA, lovastatin acid], which “decrease in amounts of extracellular Aβ peptides as compared to the untreated cells” value (Aβ peptides; 0.5 μM LA, 4 days, lipid depleted medium, H4, MDCK and CHO cells) is on record?
A: 40-60%

Q: And the “LA concentration sufficient to significantly (p<0.001) decrease the amount of extracellular Aβ peptides” value (Aβ peptides; each cell type, various concentrations of LA)?
A: ≥ 0.05 µM

Q: And the “levels of intracellular Aβ peptides in cell lysates” value (Aβ peptides; presence of 0.5 μM LA)?
A: No detectable levels

Q: What about the “reduction of extracellular Aβ peptide levels (weaker effect)” value (Aβ peptides; printed as 0.5 μM LA) of the same compound?
A: < 20%

Q: What about the “effects on maturation, levels of [35S]-labeled APPm (FIG. 6)” value (APP processing [1]) of the same compound?
A: not sufficient to account for the decrease in Aβ peptide levels

Q: And the “[35S]-labeled APPs formation as compared to control cells (FIG. 5)” value (APP processing [1]; H4 cells, four days)?
A: modest decrease

Q: And the “level of total APPm” value (APP processing [2]; CHO cells treated with 0.5 μM LA (control 3.2×10^6))?
A: 3.4×10^6 arbitrary units

Q: What about the “reduction of the amount of extracellular APPs relative to control” value (APP processing [2]; [3]) of the same compound?
A: about 30%

Q: What about the “reduction of the amount of extracellular Aβ peptides relative to control” value (APP processing [2]; [3]) of the same compound?
A: about 70%
